The values that follow come from patent publication US20080026362A1, “Three-dimensional culture containing human articular chondrocytes with induced terminal differentiation changes, and preparation process and uses of the same” (Kaohsiung Medical University, priority 2006, published 2008).

Common to all, as to type: cell-based
Assay [1] relates to collagen type II gene. Briefly: RT-PCR, mRNA expression of collagen type II in alginate-bead human articular chondrocytes (NHAC-kn). The note with it: p<0.01. On the procedure:
(§1) The alginate beads were prepared with reference to C. Sanchez et al. (2002), J. Rheumatol, 29:772-82. Briefly, the above-described human articular chondrocyte cultures were suspended in a 1.2% alginate solution in 0.9% NaCl, so as to form a cell suspension at a density of 1×10^6 cells/mL. The cell suspension was then slowly dropped into a 102 mM CaCl2 solution through a yellow pipette tip, to result in the formation of alginate beads entrapping the human articular chondrocytes. The thus-formed alginate beads were allowed to polymerize for further 10 minutes in the CaCl2 solution at room temperature.
(§2) After washing with saline solution, 15 alginate beads were cultivated in 5 ml of culture medium per well in a 6-well plate. […]
(§3) The NHAC-kn cultures were used in the following experiments except the quantitative real-time polymerase chain reaction (quantitative real-time PCR). The KMU-AC cultures were used to quantify mRNA expression by quantitative real-time PCR, which was performed to further confirm the effect of Aza-C on gene expression of human articular chondrocytes.
(§4) On Day 3, 7 and 14 after a 48 hr Aza-C treatment, expressions of the mRNA of type II and type X collagens and alkaline phosphatase (ALP) of Aza-C-treated and non-treated cells (control) were measured by RT-PCR. […]

The test system of assay [2] is collagen type X gene. Briefly: RT-PCR, mRNA expression of collagen type X in alginate-bead human articular chondrocytes (NHAC-kn). The note with it: p<0.01. How it is done:
as §1
After washing with saline solution, 15 alginate beads were cultivated in 5 ml of culture medium per well in a 6-well plate. Culture medium was the Chondrocyte basal medium (Bulletkit, Clonic®; BioWhittaker, Walkersville, Md.) with a supplement of the Chondrocyte growth medium, containing R3-IGF1, bFGF, transferrin, insulin, fetal bovine serum and gentamicin/amphotericin-B (SingleQuots, Clonic®; BioWhittaker, Walkersville, Md.). The alginate beads were cultured for 7 days at 37° C. in a humidified incubator with 5% CO2 and the culture medium was changed every 3 days. […]
as §3, §4
The thus-obtained PCR products (amplicons) were resolved by electrophoresis on a 1.4% agarose gel and visualised by ethidium bromide staining. The optical densities of the resolved bands were semi-quantified using a Bioimaging System (UVP Inc., Upland, Calif.). […] The optical intensity ratios of the PCR products to the 18S rRNA gene were calculated for comparison.

Assay [3] has as its system alkaline phosphatase (ALP) gene. Briefly: RT-PCR, mRNA expression of alkaline phosphatase in alginate-bead human articular chondrocytes (NHAC-kn). The note with it: p<0.01. On the procedure: as §1, §2, §3, §4
Assay [4] has as its system collagen type II gene. Put plainly: Quantitative real-time PCR, mRNA expression of collagen type II in human articular chondrocytes (KMU-AC). The note with it: normalized to GAPDH, control Day 3 = 100%, mean ± S.E.M. On the procedure:
as §1
(§5) After washing with saline solution, 15 alginate beads were cultivated in 5 ml of culture medium per well in a 6-well plate. Culture medium was the Chondrocyte basal medium (Bulletkit, Clonic®; BioWhittaker, Walkersville, Md.) with a supplement of the Chondrocyte growth medium, containing R3-IGF1, bFGF, transferrin, insulin, fetal bovine serum and gentamicin/amphotericin-B (SingleQuots, Clonic®; BioWhittaker, Walkersville, Md.). […]
as §3
(§6) Quantitative real-time PCR was also performed to further confirm the finding from RT-PCR. On Day 3, 7 and 14 after a 48 hr Aza-C treatment, the mRNA expressions of type II and type X collagens and ALP of Aza-C treated and control cells were measured. […]
(§7) The quantitative real-time PCR was performed in an ABI Prism 7900 HT Sequence Detection System (Applied Biosystems, Foster City, Calif.) using the SYBR Green PCR Master Mix Reagent containing the Amplitag Gold DNA polymerase, dNTP mixed with dUTP, SYBR Green 1, passive reference and reaction buffer (Applied Biosystems, Foster City, Calif.). […]
In general terms: Quantitative PCR measures a nucleic acid by following its amplification.

Assay [5] deals with collagen type X gene. Put plainly: Quantitative real-time PCR, mRNA expression of collagen type X in human articular chondrocytes (KMU-AC). The note with it: normalized to GAPDH, control Day 3 = 100%, mean ± S.E.M. On the procedure: as §1, with “temperature. […]” for “temperature.”
as §3, §6
The thus-obtained PCR products (amplicons) were detected by the fluorescence of SYBR Green, the double stranded DNA binding dye (T. B. Morrison et al. (1998), Biotechniques, 24:954-958, 960, 962). […]

The test system of the next assay is ALP gene. Briefly: Quantitative real-time PCR, mRNA expression of ALP in human articular chondrocytes (KMU-AC). The note with it: normalized to GAPDH, control Day 3 = 100%, mean ± S.E.M. On the procedure: as §1, §5, §3, §6, §7
Assay [6] deals with human articular chondrocytes. Briefly: Flow cytometry, cell size of articular chondrocytes. The note with it: Day 14 after 48 hr 15 μg/mL Aza-C, NHAC-kn. How it is done:
(§8) The cultivated alginate beads as described above were treated with 15 μg/mL of 5-azacytidine (Sigma, St Louis, Mo.) for 48 hours. Thereafter, they were maintained in media without Aza-C for another 2 weeks. Cells were harvested on Day 3, 7 and 14 after Aza-C treatment, respectively. The control cultures were cultivated and harvested under the same conditions except that the treatment of Aza-C was omitted.
(§9) Human articular chondrocytes were released from the alginate beads by dissolving the beads in a 0.9% NaCl solution containing 0.05M sodium citrate and 0.03M sodium EDTA at pH 7.4. Cells for each experiment were collected by low-speed centrifugation at 1,000 rpm for 5 min.
as §3
The cell size of articular chondrocytes from the control and Aza-C treated cultures was analysed by flow cytometry on Day 14 after the Aza-C treatment. […] Cells (1×10^6) were then suspended in phosphate buffered saline and analysed immediately on a laser flow cytometer (EPICS Elite; Coulter, Hialeah, Fla.). […]
(A flow cytometer gives signals particle by particle.)

In assay [7] the test system is human articular chondrocytes. Briefly: TUNEL assay, apoptotic rate of chondrocytes. The note with it: Day 14 after 48 hr 15 μg/mL Aza-C; NHAC-kn; p<0.01. How it is done:
as §8, §9, §3
Fragmented DNA of an apoptotic cell was TUNEL stained using an In Situ Cell Death Detection Kit, TMR red (Roche, Germany). […] Slides were observed on a fluorescence microscope with an excitation wavelengthof 580 nm for rhodamine and 365 nm for DAPI. […] Stained cells were counted in 5 microscopic fields for each slide. […]

Setting [8] is: Day 7 after 48 hr treatment with 15 μg/ml Aza-C.
Where [9] appears, read: Day 14 after 48 hr treatment with 15 μg/ml Aza-C.
[10] abbreviates: Day 3 after 48 hr 15 μg/mL Aza-C.
Where [11] appears, read: Day 7 after 48 hr 15 μg/mL Aza-C.
The mark [12] stands for this setting: Day 14 after 48 hr 15 μg/mL Aza-C.

`Nc1ncn([C@@H]2O[C@H](CO)[C@@H](O)[C@H]2O)c(=O)n1` [Aza-C, 5-azacytidine]: the “mRNA expression of collagen type II gene (RT-PCR, normalized to 18S rRNA) vs control group” value in the assay on collagen type II gene [1] (setting [8]) and with collagen type II gene [1] (setting [9]) was “significantly decreased” in each case. The “mRNA expression of collagen type X gene (RT-PCR, normalized to 18S rRNA) vs control group” value in the assay with collagen type X gene [2] (Day 3 after 48 hr treatment with 15 μg/ml Aza-C), with collagen type X gene [2] (setting [8]) and in the assay with collagen type X gene [2] (setting [9]) was “significantly increased” in each case. The “mRNA expression of ALP gene (RT-PCR, normalized to 18S rRNA) vs control group” value in assay [3] (setting [8]) and in assay [3] (setting [9]) was “significantly increased” in each case. For the same molecule, the “Percentage change of mRNA expression of collagen type II by quantitative real-time PCR” value in the assay with collagen type II gene [4] (setting [10]) amounted to 7.3 ± 1.2 %; in the assay with collagen type II gene [4] (setting [11]) it was 1.0 ± 0.4 %; with collagen type II gene [4] (setting [12]) it was 3.0 ± 0.9 %. Besides, the “Percentage change of mRNA expression of collagen type X by quantitative real-time PCR” value with collagen type X gene [5] (setting [10]) is recorded as 398.0 ± 26.3 %; with collagen type X gene [5] (setting [12]), 335.0 ± 1.4 %. Moreover, the entries for the “Percentage change of mRNA expression of ALP by quantitative real-time PCR” value in the assay on ALP gene (setting [10]), with ALP gene (setting [11]) and with ALP gene (setting [12]) were 175.8 ± 13.5%, 31,900.0 ± 4.7 % and 735.6 ± 3.2 %, respectively. Moreover, in assay [6], the “increase of cell size as compared to the control cultures” value is 26%. Besides, in assay [6] (mean ± SEM, control cultures 404.41±1.45, p<0.01), the “cell size of articular chondrocytes (relative intensity in forward scatter)” value was found to be 509.20±1.93. Moreover, the “apoptotic rate of articular chondrocytes (TUNEL stained / DAPI stained cells) vs control cultures” value in assay [7] is recorded as “significantly increased”.
